Data: ChEMBL document CHEMBL5543162, “Discovery of a Novel Orally Bioavailable FLT3-PROTAC Degrader for Efficient Treatment of Acute Myeloid Leukemia and Overcoming Resistance of FLT3 Inhibitors” (J Med Chem, 2024)
Calls of active or inactive are those of the source. No cut-off for these calls is given here.

Legend:
[1] = system: MV4-11; assay: Antitumor activity against human MV4-11 cells xenografted in nu/nu mouse at 1.6 mg/kg, po administered daily for 2 weeks relative to control; format: functional; conditions: MV4-11, 336 h, read-out: TGI
[2] = system: MOLM-13; assay: Antiproliferative activity against Sunitinib-resistant human MOLM-13 cells incubated for 48 hrs by CCK8 assay; format: functional, cell-based; conditions: MOLM-13, 48 h
[3] = Antiproliferative activity against human U-937 cells expressing wild-type FLT3 incubated for 48 hrs by CCK8 assay; format: toxicity, cell-based
[4] = Stability in rat liver microsomes assessed as hepatic clearance; format: ADME, Microsome
[5] = Antiproliferative activity against human HL-60 cells expressing wild-type FLT3 incubated for 48 hrs by CCK8 assay; format: toxicity, cell-based
[6] = Stability in dog liver microsomes assessed as half life; format: ADME, Canis lupus familiaris, Microsome
[7] = Stability in mouse liver microsomes assessed as half life; format: ADME, Microsome
[8] = Stability in human liver microsomes assessed as half life; format: ADME, Microsome
[9] = system: MV4-11; assay: Antiproliferative activity against human MV4-11 cells expressing FLT3-ITD mutant incubated for 48 hrs by CCK8 assay; format: functional, cell-based; conditions: MV4-11, 48 h
[10] = Stability in monkey liver microsomes assessed as half life; format: ADME, Microsome; conditions: chlorocebus aethiops
[11] = Stability in monkey liver microsomes assessed as intrinsic clearance; format: ADME, Microsome; conditions: chlorocebus aethiops, read-out: CLH
[12] = Stability in human liver microsomes assessed as intrinsic clearance; format: ADME, Microsome; conditions: read-out: CLH
[13] = Stability in dog liver microsomes assessed as hepatic clearance; format: ADME, Canis lupus familiaris, Microsome
[14] = Stability in mouse liver microsomes assessed as hepatic clearance; format: ADME, Microsome
[15] = Stability in monkey liver microsomes assessed as hepatic clearance; format: ADME, Microsome; conditions: chlorocebus aethiops
[16] = system: MOLM-13; assay: Antiproliferative activity against Quizartinib-resistant human MOLM-13 cells incubated for 48 hrs by CCK8 assay; format: functional, cell-based; conditions: MOLM-13, 48 h
[17] = Antiproliferative activity against human THP-1 cells expressing wild-type FLT3 incubated for 48 hrs by CCK8 assay; format: toxicity, cell-based
[18] = Stability in rat liver microsomes assessed as intrinsic clearance; format: ADME, Microsome; conditions: read-out: CLH
[19] = Stability in mouse liver microsomes assessed as intrinsic clearance; format: ADME, Microsome; conditions: read-out: CLH
[20] = Stability in human liver microsomes assessed as hepatic clearance; format: ADME, Microsome
[21] = Stability in dog liver microsomes assessed as intrinsic clearance; format: ADME, Canis lupus familiaris, Microsome; conditions: read-out: CLH
[22] = Stability in rat liver microsomes assessed as half life; format: ADME, Microsome
[23] = system: MOLM-13; assay: Antiproliferative activity against human MOLM-13 cells incubated for 48 hrs by CCK8 assay; format: functional, cell-based; conditions: MOLM-13, 48 h
[24] = system: Protein cereblon/Receptor-type tyrosine-protein kinase FLT3 (Homo sapiens), P36888+Q96SW2 [UNDEFINED MUTATION]; assay: PROTAC activity at CRBN/FLT3-ITD mutant in human MOLM-13 cells assessed as protein degradation at 100 nM incubated for 8 hrs by Western blot analysis; format: cell-based
[25] = system: MV4-11; assay: Induction of apoptosis in human MV4-11 cells at 50 nM incubated for 24 hrs by Annexin V-FITC/PI staining based flow cytometry; format: functional, cell-based
[26] = system: MOLM-13; assay: Induction of apoptosis in human MOLM-13 cells at 50 nM incubated for 24 hrs by Annexin V-FITC/PI staining based flow cytometry; format: functional, cell-based
[27] = system: Protein cereblon/Receptor-type tyrosine-protein kinase FLT3 (Homo sapiens), P36888+Q96SW2 [UNDEFINED MUTATION]; assay: PROTAC activity at CRBN/FLT3-ITD mutant in human MV4-11 cells assessed as protein degradation at 100 nM incubated for 8 hrs by Western blot analysis; format: cell-based

Chain of Protein cereblon/Receptor-type tyrosine-protein kinase FLT3 (Homo sapiens), P36888+Q96SW2 [UNDEFINED MUTATION] (P36888 whole entry, looked up, change not shown): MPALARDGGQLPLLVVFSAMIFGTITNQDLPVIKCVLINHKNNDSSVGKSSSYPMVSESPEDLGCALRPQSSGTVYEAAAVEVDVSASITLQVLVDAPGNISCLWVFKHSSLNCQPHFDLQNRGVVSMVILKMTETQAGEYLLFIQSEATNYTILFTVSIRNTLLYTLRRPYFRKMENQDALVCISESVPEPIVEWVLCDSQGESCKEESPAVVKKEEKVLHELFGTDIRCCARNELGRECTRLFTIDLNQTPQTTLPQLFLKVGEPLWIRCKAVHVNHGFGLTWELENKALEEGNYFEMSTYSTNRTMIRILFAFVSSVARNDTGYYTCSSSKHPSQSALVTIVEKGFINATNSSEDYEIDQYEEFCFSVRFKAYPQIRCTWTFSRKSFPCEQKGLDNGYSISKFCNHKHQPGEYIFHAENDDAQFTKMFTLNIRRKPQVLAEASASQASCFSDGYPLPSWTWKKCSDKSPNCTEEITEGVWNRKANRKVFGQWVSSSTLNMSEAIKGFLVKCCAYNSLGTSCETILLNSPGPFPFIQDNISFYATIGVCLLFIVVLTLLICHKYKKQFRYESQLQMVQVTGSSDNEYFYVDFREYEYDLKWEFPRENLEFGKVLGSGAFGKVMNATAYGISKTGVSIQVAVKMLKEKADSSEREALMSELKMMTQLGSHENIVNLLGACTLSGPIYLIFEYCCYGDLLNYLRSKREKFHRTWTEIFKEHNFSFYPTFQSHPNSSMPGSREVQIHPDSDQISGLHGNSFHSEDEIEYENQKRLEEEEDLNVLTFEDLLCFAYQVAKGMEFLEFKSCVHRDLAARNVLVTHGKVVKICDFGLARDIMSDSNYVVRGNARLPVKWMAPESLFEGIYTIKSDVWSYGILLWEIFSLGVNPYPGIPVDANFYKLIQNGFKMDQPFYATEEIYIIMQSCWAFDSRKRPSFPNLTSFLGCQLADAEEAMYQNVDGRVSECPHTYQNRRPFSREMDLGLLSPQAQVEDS
Chain of Protein cereblon/Receptor-type tyrosine-protein kinase FLT3 (Homo sapiens), P36888+Q96SW2 [UNDEFINED MUTATION] (Q96SW2 whole entry, looked up, change not shown): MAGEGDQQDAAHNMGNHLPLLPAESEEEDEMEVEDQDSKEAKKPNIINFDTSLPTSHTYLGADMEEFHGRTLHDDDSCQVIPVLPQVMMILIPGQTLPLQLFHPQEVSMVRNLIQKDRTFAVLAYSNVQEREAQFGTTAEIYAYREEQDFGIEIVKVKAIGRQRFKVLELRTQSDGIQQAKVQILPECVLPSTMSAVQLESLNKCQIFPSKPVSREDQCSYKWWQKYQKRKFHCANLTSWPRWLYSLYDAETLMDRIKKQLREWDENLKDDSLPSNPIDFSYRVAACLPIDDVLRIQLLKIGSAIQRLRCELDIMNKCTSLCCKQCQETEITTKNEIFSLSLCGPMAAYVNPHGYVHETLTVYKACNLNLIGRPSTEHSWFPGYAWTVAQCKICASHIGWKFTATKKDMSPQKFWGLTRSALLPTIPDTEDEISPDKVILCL

For Cc1c(NC(=O)CCN2CCCC2)c[nH]c1/C=C1\C(=O)Nc2ccc(F)cc21, the inhibition in vivo at 1.6 mg/kg [1] was 39.8%, the IC50 [2] was 811 nM and the IC50 at 48 h [3] was 2780 nM. The CLhep predicted [4] was 27.7 mL/min/kg, the IC50 at 48 h [5] was 6450 nM and the half-life [6] was 1.5 h. The half-life [7] was 0.758 h, the half-life [8] was 3.21 h and the IC50 [9] was 24 nM. It also gave a half-life [10] of 0.983 h, a CLint scaled [11] of 31.7 mL/min/kg and a CLint scaled [12] of 8.32 mL/min/kg. It also gave a CLhep predicted [13] of 12.9 mL/min/kg, a CLhep predicted [14] of 51.4 mL/min/kg and a CLhep predicted [15] of 18.4 mL/min/kg. For the same compound, the IC50 [16] was 1520 nM, the IC50 at 48 h [17] was 1500 nM and the CLint scaled [18] was 41 mL/min/kg. The CLint scaled [19] was 120 mL/min/kg, the CLhep predicted [20] was 5.93 mL/min/kg and the CLint scaled [21] was 22.1 mL/min/kg. The half-life [22] was 1.01 h.
With Cc1c(NC(=O)CN2CCN(C3CCN(c4ccc5c(c4)C(=O)N(C4CCC(=O)NC4=O)C5=O)CC3)CC2)c[nH]c1/C=C1\C(=O)Nc2ccc(F)cc21 (stereo not given) the IC50 [9] was 106 nM and the IC50 [23] was 335 nM.
Cc1ncsc1-c1ccc(CNC(=O)[C@@H]2C[C@@H](O)CN2C(=O)[C@@H](NC(=O)CCCCC(=O)N2CCN(CC(=O)Nc3c[nH]c(/C=C4\C(=O)Nc5ccc(F)cc54)c3C)CC2)C(C)(C)C)cc1 gave an IC50 [9] of 360 nM and an IC50 [23] of over 1000 nM.
Compound Cc1c(NC(=O)CN2CCN(CCCCCCCCCOc3cccc4c3C(=O)N(C3CCC(=O)NC3=O)C4=O)CC2)c[nH]c1/C=C1\C(=O)Nc2ccc(F)cc21 (stereo not given) has an IC50 [9] of 130 nM and an IC50 [23] of 276 nM.
With Cc1c(NC(=O)CN2CCN(C3CN(c4ccc5c(c4)C(=O)N(C4CCC(=O)NC4=O)C5=O)C3)CC2)c[nH]c1/C=C1\C(=O)Nc2ccc(F)cc21 (stereo not given) the IC50 [9] was 170 nM and the IC50 [23] was 367 nM.
With Cc1c(NC(=O)CN2CCN(CC3CCN(c4ccc5c(c4)C(=O)N(C4CCC(=O)N(C)C4=O)C5=O)CC3)CC2)c[nH]c1/C=C1\C(=O)Nc2ccc(F)cc21 (stereo not given) the Activity [24] was “inactive”, the Activity [25] was “inactive” and the Activity [26] was “inactive”. The Activity [27] was “inactive”.
In the case of Cc1c(NC(=O)CN2CCN(C(=O)CCCCCCCCCCNc3cccc4c3C(=O)N(C3CCC(=O)NC3=O)C4=O)CC2)c[nH]c1/C=C1\C(=O)Nc2ccc(F)cc21 (stereo not given), the IC50 [9] is reported as 193 nM and the IC50 [23] is reported as 273 nM.
In the case of Cc1c(NC(=O)CN2CCN(C(=O)CCCCCCC(=O)NCCNc3cccc4c3C(=O)N(C3CCC(=O)NC3=O)C4=O)CC2)c[nH]c1/C=C1\C(=O)Nc2ccc(F)cc21 (stereo not given), the IC50 [9] is reported as 288 nM and the IC50 [23] is reported as 533 nM.
Compound Cc1ncsc1-c1ccc(CNC(=O)[C@@H]2C[C@@H](O)CN2C(=O)[C@@H](NC(=O)CCCCCC(=O)N2CCN(CC(=O)Nc3c[nH]c(/C=C4\C(=O)Nc5ccc(F)cc54)c3C)CC2)C(C)(C)C)cc1 has an IC50 [9] of 216 nM and an IC50 [23] of over 1000 nM.
In the case of Cc1c(NC(=O)CN2CCN(CCCCCCCCC(=O)Nc3cccc4c3C(=O)N(C3CCC(=O)NC3=O)C4=O)CC2)c[nH]c1/C=C1\C(=O)Nc2ccc(F)cc21 (stereo not given), the IC50 [9] is reported as 231 nM and the IC50 [23] is reported as 299 nM.
For Cc1c(NC(=O)CN2CCN(C(=O)CCCCCCCCC(=O)NCCNc3cccc4c3C(=O)N(C3CCC(=O)NC3=O)C4=O)CC2)c[nH]c1/C=C1\C(=O)Nc2ccc(F)cc21 (stereo not given), the IC50 [9] was 214 nM and the IC50 [23] was 233 nM.
With Cc1ncsc1-c1ccc(CNC(=O)[C@H]2C[C@H](O)CN2C(=O)[C@@H](NC(=O)CCCCCCC(=O)N2CCN(CC(=O)Nc3c[nH]c(/C=C4\C(=O)Nc5ccc(F)cc54)c3C)CC2)C(C)(C)C)cc1 the IC50 [9] was 262 nM and the IC50 [23] was 399 nM.
For Cc1c(NC(=O)CN2CCN(C(=O)CCOCCNC(=O)COc3cccc4c3C(=O)N(C3CCC(=O)NC3=O)C4=O)CC2)c[nH]c1/C=C1\C(=O)Nc2ccc(F)cc21 (stereo not given), the IC50 [9] was 812 nM and the IC50 [23] was over 1000 nM.
With CCc1nc(C(N)=O)c(Nc2ccc(N3CCC(N4CCN(C)CC4)CC3)c(OC)c2)nc1NC1CCOCC1 [GILTERITINIB] the IC50 [2] was 10900 nM, the IC50 [9] was 40.2 nM and the IC50 [16] was 2320 nM. It also gave an IC50 [23] of 67.5 nM.
Work on Cc1c(NC(=O)CN2CCN(C(=O)CCCC(=O)NCCNc3cccc4c3C(=O)N(C3CCC(=O)NC3=O)C4=O)CC2)c[nH]c1/C=C1\C(=O)Nc2ccc(F)cc21 (stereo not given) yielded an IC50 [9] of 230 nM and an IC50 [23] of over 1000 nM.
For CC(C)(C)c1cc(NC(=O)Nc2ccc(-c3cn4c(n3)sc3cc(OCCN5CCOCC5)ccc34)cc2)no1 [QUIZARTINIB], the IC50 [2] was 1230 nM, the IC50 [9] was 33.7 nM and the IC50 [16] was 40900 nM. For the same compound, the IC50 [23] was 39.4 nM.
With Cc1c(NC(=O)CN2CCN(C(=O)CCCCCC(=O)NCCNc3cccc4c3C(=O)N(C3CCC(=O)NC3=O)C4=O)CC2)c[nH]c1/C=C1\C(=O)Nc2ccc(F)cc21 (stereo not given) the IC50 [9] was 168 nM and the IC50 [23] was 487 nM.
